Test [1] deals with T1, Heat shock factor protein 1 (Homo sapiens) (UniProt Q00613).
T1 sequence (whole entry): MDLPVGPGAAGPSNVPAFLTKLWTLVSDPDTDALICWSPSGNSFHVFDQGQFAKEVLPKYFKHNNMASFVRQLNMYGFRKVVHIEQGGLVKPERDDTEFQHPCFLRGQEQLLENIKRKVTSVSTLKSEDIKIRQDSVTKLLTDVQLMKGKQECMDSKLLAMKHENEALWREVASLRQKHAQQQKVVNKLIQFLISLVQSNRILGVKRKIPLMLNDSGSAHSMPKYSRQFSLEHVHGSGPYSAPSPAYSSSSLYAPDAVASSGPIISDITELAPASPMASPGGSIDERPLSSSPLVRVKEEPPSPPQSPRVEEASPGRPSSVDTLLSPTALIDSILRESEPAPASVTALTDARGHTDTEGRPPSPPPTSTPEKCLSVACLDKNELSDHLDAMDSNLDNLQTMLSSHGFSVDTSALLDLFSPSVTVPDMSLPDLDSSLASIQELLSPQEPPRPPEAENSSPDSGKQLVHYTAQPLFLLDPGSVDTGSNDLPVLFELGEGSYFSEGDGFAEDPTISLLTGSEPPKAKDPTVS
The test is described as follows: Reduction of HSP1 stability in human NCI-H460 cells assessed as protein degradation at 10 ug/mL up to 9 hrs by Western blot analysis. The test is classed as cell-based.

Test [2] deals with NCI-H460. Nature of the test: Cytotoxicity against human NCI-H460 cells up to 100 uM after 24 hrs by MTT assay. The test is classed as functional, cell-based.
Test [3] deals with NCI-H460. Nature of the test: Induction of apoptosis in human NCI-H460 cells expressing siHSF1 assessed as cleaved PARP and caspase 3 level up to 20 uM after 12 hrs. The test is classed as functional, cell-based.
Test [4] concerns NCI-H460. Nature of the test: Cytotoxicity against HSF1 deficient human NCI-H460 cells up to 100 uM after 24 hrs by MTT assay. In kind it is functional, cell-based.
Test [5] has as its system NCI-H460. Nature of the test: Induction of apoptosis in human NCI-H460 cells assessed as cleaved PARP and caspase 3 level after 12 hrs. In kind it is functional, cell-based.
For test [6], the target named is T1, Heat shock factor protein 1 (Homo sapiens). The test is described as follows: Induction of HSP1 dephosphorylation at S230, S303/307, and S326 in human NCI-H460 cells after 24 hrs by Western blot analysis. The test is classed as cell-based.
The test system of test [7] is NCI-H460. Nature of the test: Cytotoxicity against human NCI-H460 cells expressing siHSF1 up to 100 uM after 24 hrs by MTT assay. In kind it is functional, cell-based.
Test [8] addresses T1, Heat shock factor protein 1 (Homo sapiens). Nature of the test: Inhibition of HSP1 activity in human NCI-H460 cells assessed as reduction of hsp70 promoter activity after 12 hrs by luciferase reporter gene assay. The test is classed as cell-based.
For test [9] the target is unchanged. Nature of the test: Inhibition of HSP1 activity in human NCI-H460 cells assessed as reduction of HSP27 mRNA expression at 20 uM up to 24 hrs by qRT-PCR analysis. The test is classed as cell-based.
For test [10] the target is unchanged. The test is described as follows: Inhibition of HSP1 activity in human NCI-H460 cells assessed as reduction of HSP25 protein expression at 20 uM by Western blot analysis. In kind it is cell-based. The settings on record: TDE = time-dependent effect.
Test [11] has the same target. Nature of the test: Inhibition of HSP1 activity in human NCI-H460 cells assessed as reduction of HSP1 protein expression at 20 uM by Western blot analysis. In kind it is cell-based. Particulars: TDE = time-dependent effect.
Test [12] shares this target. Nature of the test: Inhibition of HSP1 activity in human NCI-H460 cells assessed as reduction of HSP70 mRNA expression at 1 to 20 uM after 12 hrs by qRT-PCR analysis. In kind it is cell-based.
Test [13] shares this target. Nature of the test: Reduction of HSP1 stability in human NCI-H460 cells assessed as protein degradation at 10 uM up to 9 hrs by Western blot analysis in presence of cyclohexamide. The test is classed as cell-based.
The target is the same in test [14]. The test is described as follows: Inhibition of HSP1 activity in human NCI-H460 cells assessed as reduction of HSP1 mRNA expression at 20 uM up to 24 hrs by qRT-PCR analysis. In kind it is cell-based.
The test system of test [15] is NCI-H460. Nature of the test: Induction of apoptosis in human NCI-H460 cells assessed as cyclin D and cyclin E level at 20 uM. The test is classed as functional, cell-based. Particulars: TDE = time-dependent effect.
In test [16] the target is T1, Heat shock factor protein 1 (Homo sapiens). Nature of the test: Inhibition of HSP1 activity in human NCI-H460 cells assessed as reduction of HSP70 protein expression after 12 hrs by Western blot analysis. In kind it is cell-based.
Test [17] deals with T2, Heat shock factor protein 1 (Mus musculus) (UniProt P38532).
T2 sequence (whole entry): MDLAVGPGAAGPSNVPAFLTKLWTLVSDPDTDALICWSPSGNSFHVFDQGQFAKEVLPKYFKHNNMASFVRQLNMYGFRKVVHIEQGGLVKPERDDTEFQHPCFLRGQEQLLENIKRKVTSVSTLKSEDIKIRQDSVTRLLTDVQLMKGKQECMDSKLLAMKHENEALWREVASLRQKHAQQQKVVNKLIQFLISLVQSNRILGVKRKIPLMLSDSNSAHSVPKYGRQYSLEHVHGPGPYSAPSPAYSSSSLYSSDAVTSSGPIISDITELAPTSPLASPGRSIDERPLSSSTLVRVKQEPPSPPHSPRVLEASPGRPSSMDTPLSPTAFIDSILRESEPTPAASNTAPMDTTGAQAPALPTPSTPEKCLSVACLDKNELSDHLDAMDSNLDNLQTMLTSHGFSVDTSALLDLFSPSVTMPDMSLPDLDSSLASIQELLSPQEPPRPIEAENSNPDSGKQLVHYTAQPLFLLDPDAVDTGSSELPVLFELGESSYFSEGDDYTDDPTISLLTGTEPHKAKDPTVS
Nature of the test: Inhibition of HSP1 activity in mouse MEF assessed as reduction of hsp25 promoter activity at 5 to 100 uM after 12 hrs by luciferase reporter gene assay.

Test [18] has as its target T1, Heat shock factor protein 1 (Homo sapiens). The test is described as follows: Inhibition of HSP1 activity in human NCI-H460 cells assessed as reduction of HSP27 mRNA expression at 1 to 20 uM after 12 hrs by qRT-PCR analysis. In kind it is cell-based.
Test [19] has the same target. Nature of the test: Inhibition of HSP1 activity in human NCI-H460 cells assessed as reduction of HSP70 protein expression at 20 uM by Western blot analysis. The settings on record: TDE = time-dependent effect. The test is classed as cell-based.
The target is the same in test [20]. The test is described as follows: Inhibition of HSP1 activity in human NCI-H460 cells assessed as reduction of hsp25 promoter activity after 12 hrs by luciferase reporter gene assay. In kind it is cell-based.
Test [21] has the same target. Nature of the test: Inhibition of HSP1 activity in human NCI-H460 cells assessed as reduction of HSP1 mRNA expression at 1 to 20 uM after 12 hrs by qRT-PCR analysis. In kind it is cell-based.
In test [22] the test system is T3, Heat shock factor protein 1 (Homo sapiens), Q00613 [S326E].
T3 sequence (whole entry): T1 sequence (whole entry) with S326E
Nature of the test: Reduction of HSP1 phosphorylated at S326E mutant stability in human NCI-H460 cells up to 7.5 hrs by Western blot analysis in presence of cyclohexamide. The test is classed as cell-based.

Test [23] has as its system NCI-H460. The test is described as follows: Induction of apoptosis in human NCI-H460 cells assessed as cyclin D and cyclin E level after 12 hrs. The test is classed as functional, cell-based.
For test [24], the target named is T1, Heat shock factor protein 1 (Homo sapiens). Nature of the test: Inhibition of HSP1 activity in human NCI-H460 cells assessed as reduction of HSP1 protein expression after 12 hrs by Western blot analysis. The test is classed as cell-based.
In test [25] the test system is T4, Heat shock factor protein 1 (Homo sapiens), Q00613 [S326A].
T4 sequence (whole entry): T1 sequence (whole entry) with S326A
The test is described as follows: Reduction of HSP1 dephosphorylated at S326A mutant stability in human NCI-H460 cells up to 7.5 hrs by Western blot analysis in presence of cyclohexamide. The test is classed as cell-based.

Test [26] concerns the target T1, Heat shock factor protein 1 (Homo sapiens). Nature of the test: Inhibition of HSP1 activity in human NCI-H460 cells assessed as reduction of HSP70 mRNA expression at 20 uM up to 24 hrs by qRT-PCR analysis. The test is classed as cell-based.
Test [27] shares this target. Nature of the test: Inhibition of HSP1 activity in human NCI-H460 cells assessed as reduction of HSP25 protein expression after 12 hrs by Western blot analysis. In kind it is cell-based.
For test [28], the system named is NCI-H460. Nature of the test: Induction of apoptosis in human NCI-H460 cells assessed as cleaved PARP and caspase 3 level at 20 uM. The test is classed as functional, cell-based. The settings on record: TDE = time-dependent effect.
For test [29], the target named is T2, Heat shock factor protein 1 (Mus musculus). The test is described as follows: Inhibition of HSP1 activity in mouse MEF assessed as reduction of hsp70 promoter activity at 5 to 100 uM after 12 hrs by luciferase reporter gene assay.

Structures are written as SMILES. Positions count from the first letter of the chain named. The source made the active and inactive calls. No cut-off for these calls is given here.

Turning to `C[C@@H]1C[C@@H]([C@H](O)CC2CC(=O)NC(=O)C2)C(=O)[C@@H](C)C1`, the result in test [1] was Active.

For the compound `Oc1ccc(Cc2ccc(O)c(Cc3ccc(O)cc3)c2)cc1`, the result in test [2], in [3], in test [4], in [13], in [22] and in test [25] was Active. Further, the Activity result in [5] is “Dose-dependent effect”; in [6] it was “Dose-dependent effect”; in test [15], “tde”; in [23], “Dose-dependent effect”; in test [28], “tde”. Besides, the outcome in test [7] was inactive. For the same compound, the inhibition result was “Dose-dependent effect” in [8]; “tde” in test [10]; “tde” in test [11]; “Dose-dependent effect” in test [16]; “tde” in test [19]; “Dose-dependent effect” in [20]. In addition, the inhibition result in [24] and in [27] was “Dose-dependent effect” in each case. Further, the inhibition entry in test [9], in [12], in [18] and in test [26] was “Active” each time. The inhibition entry in test [14], in test [17], in [21] and in test [29] was “inactive” each time.

Values taken from ChEMBL document CHEMBL3286220, “2,4-Bis(4-hydroxybenzyl)phenol inhibits heat shock transcription factor 1 and sensitizes lung cancer cells to conventional anticancer modalities” (J Nat Prod, 2014).
